Measured values taken from US12485169B2, “Compounds” (GREY WOLF THERAPEUTICS LIMITED, priority 2018, dated 2025).

molecular target: T1, Purified ERAP1 (37-941)-10His (ERAP1) (Homo sapiens, UniProt Q9NZ08); assay: ERAP1 mediated hydrolysis of an amide substrate (10-mer inhibition assay), biochemical system; settings: 10-mer substrate, 23° C., 1 h, excitation 279 nm / emission 355 nm; read-out: IC50 vs Decapeptide WRVYEKC(Dnp)ALK-acid (where Dnp is Dinitrophenyl maleimide) (10-mer)
T1 construct: Purified ERAP1 (37-941)-10His (ERAP1)
T1 sequence (Q9NZ08 37-941): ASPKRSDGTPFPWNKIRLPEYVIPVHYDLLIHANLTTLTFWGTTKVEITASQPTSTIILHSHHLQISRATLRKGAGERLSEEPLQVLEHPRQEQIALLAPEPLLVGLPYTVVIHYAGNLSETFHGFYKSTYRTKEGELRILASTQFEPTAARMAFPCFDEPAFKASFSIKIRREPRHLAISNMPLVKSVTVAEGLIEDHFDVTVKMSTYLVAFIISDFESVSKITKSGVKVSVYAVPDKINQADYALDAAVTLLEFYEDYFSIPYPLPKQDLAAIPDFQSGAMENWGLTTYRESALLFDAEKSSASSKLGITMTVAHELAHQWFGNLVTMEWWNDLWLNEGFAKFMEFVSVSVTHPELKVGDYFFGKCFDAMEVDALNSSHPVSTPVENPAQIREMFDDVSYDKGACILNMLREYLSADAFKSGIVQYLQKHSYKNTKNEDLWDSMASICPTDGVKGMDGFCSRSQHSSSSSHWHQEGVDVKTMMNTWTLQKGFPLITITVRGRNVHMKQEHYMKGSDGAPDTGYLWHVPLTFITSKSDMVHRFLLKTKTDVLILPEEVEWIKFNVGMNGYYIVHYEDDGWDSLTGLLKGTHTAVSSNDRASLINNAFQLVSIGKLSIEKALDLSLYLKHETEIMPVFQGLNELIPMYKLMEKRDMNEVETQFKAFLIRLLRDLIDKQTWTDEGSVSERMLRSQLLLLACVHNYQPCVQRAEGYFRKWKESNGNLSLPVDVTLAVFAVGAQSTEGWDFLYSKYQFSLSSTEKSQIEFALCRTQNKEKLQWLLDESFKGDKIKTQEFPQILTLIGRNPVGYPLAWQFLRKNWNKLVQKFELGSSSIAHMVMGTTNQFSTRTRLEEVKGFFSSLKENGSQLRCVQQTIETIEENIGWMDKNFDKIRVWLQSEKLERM

| IC50 | Structure (SMILES) |
| --- | --- |
| < 500 nM | CS(=O)(=O)c1ccc(N2CCCCC2)c(NS(=O)(=O)c2cc(C(=O)O)ccc2C2CC2)c1 [Example 296, 4-cyclopropyl-3-(N-(5-(methylsulfonyl)-2-(piperidin-1-yl)phenyl)sulfamoyl)benzoic acid] |
| < 500 nM | CS(=O)(=O)c1ccc(N2CCC(F)CC2)c(NS(=O)(=O)c2cc(C(=O)O)ccc2C2CC2)c1 [Example 320, 4-cyclopropyl-3-(N-(2-(4-fluoropiperidin-1-yl)-5-(methylsulfonyl)phenyl)sulfamoyl)benzoic acid] |
| < 500 nM | O=C(O)c1ccc(C2CC2)c(S(=O)(=O)Nc2cc(-n3cnnn3)ccc2N2CC(O)C2)c1 [Example 325, 4-cyclopropyl-3-(N-(2-(3-hydroxyazetidin-1-yl)-5-(tetrazol-1-yl)phenyl)sulfamoyl)benzoic acid] |
| < 500 nM | CS(=O)(=O)c1cc(NS(=O)(=O)c2cc(C(=O)O)ccc2C2CC2)c(N2CCCCC2)cc1Cl [Example 332, 3-(N-(4-chloro-5-(methylsulfonyl)-2-(piperidin-1-yl)phenyl)sulfamoyl)-4-cyclopropylbenzoic acid] |
| < 500 nM | O=C(O)c1ccc(C2CC2)c(S(=O)(=O)Nc2cc(C(F)(F)F)ccc2N2CCC[C@@H](O)C2)c1 [Example 314, I-4-cyclopropyl-3-(N-(2-(3-hydroxypiperidin-1-yl)-5-(trifluoromethyl)phenyl)sulfamoyl)benzoic acid] |
| < 500 nM | CCc1ccc(C(=O)O)cc1S(=O)(=O)Nc1cc(C(F)(F)F)ccc1N1CCC[C@@H](F)C1 [Example 211, I-4-ethyl-3-(N-(2-(3-fluoropiperidin-1-yl)-5-(trifluoromethyl)phenyl)sulfamoyl)benzoic acid] |
| > 5000 nM | CS(=O)(=O)c1ccc(C(=O)O)cc1S(=O)(=O)Nc1cc(C(F)(F)F)ccc1N1CCCCC1 [Example 225, 4-(methylsulfonyl)-3-(N-(2-(piperidin-1-yl)-5-(trifluoromethyl)phenyl)sulfamoyl)benzoic acid] |
| < 500 nM | C[C@@H]1C[C@H](C)CN(c2ccc(C#N)cc2NS(=O)(=O)c2cc(C(=O)O)ccc2C2CC2)C1 [Example 328, 3-(N-(5-cyano-2-(cis-3,5-dimethylpiperidin-1-yl)phenyl)sulfamoyl)-4-cyclopropylbenzoic acid] |
| < 500 nM | CS(=O)(=O)c1ccc(N2CCC[C@@H](F)C2)c(NS(=O)(=O)c2cc(C(=O)O)ccc2C2CC2)c1 [Example 321, I-4-cyclopropyl-3-(N-(2-(3-fluoropiperidin-1-yl)-5-(methylsulfonyl)phenyl)sulfamoyl)benzoic acid] |
| < 500 nM | CCc1ccc(C(=O)O)cc1S(=O)(=O)Nc1cc(-n2cnnn2)ccc1N1CCC[C@@H](F)C1 [Example 266, I-4-ethyl-3-(N-(2-(3-fluoropiperidin-1-yl)-5-(tetrazol-1-yl)phenyl)sulfamoyl)benzoic acid] |
| < 500 nM | N#Cc1ccc(N2CCC[C@@H](F)C2)c(NS(=O)(=O)c2cc(C(=O)O)ccc2C2CC2)c1 [Example 312, I-3-(N-(5-cyano-2-(3-fluoropiperidin-1-yl)phenyl)sulfamoyl)-4-cyclopropylbenzoic acid] |
| < 500 nM | NS(=O)(=O)c1ccc(N2CCCCC2)c(NS(=O)(=O)c2cc(C(=O)O)ccc2C2CC2)c1 [Example 329, 4-cyclopropyl-3-(N-(2-(piperidin-1-yl)-5-sulfamoylphenyl)sulfamoyl)benzoic acid] |

Continued, compound first:

| Structure (SMILES) | IC50 |
| --- | --- |
| CCC1(O)CN(c2ccc(C(F)(F)F)cc2NS(=O)(=O)c2cc(C(=O)O)ccc2OC)C1 [Example 189, 3-(N-(2-(3-ethyl-3-hydroxyazetidin-1-yl)-5-(trifluoromethyl)phenyl)sulfamoyl)-4-methoxybenzoic acid] | > 5000 nM |
| COc1ccc(C(=O)O)cc1S(=O)(=O)Nc1cc(C(F)(F)F)ccc1N1CCC2(CC1)OCc1ccccc12 [Example 33, 3-(N-(2-(spiro[isobenzofuran-1,4′-piperidin]-1′-yl)-5-(trifluoromethyl)phenyl)sulfamoyl)-4-methoxybenzoic acid] | < 500 nM |
| CCc1ccc(C(=O)O)cc1S(=O)(=O)Nc1cc(Cl)ccc1N1CCCCC1 [Example 216, 3-(N-(5-chloro-2-(piperidin-1-yl)phenyl)sulfamoyl)-4-ethylbenzoic acid] | < 500 nM |
| COc1ccc(C(=O)O)cc1S(=O)(=O)Nc1cc(C(F)(F)F)ccc1N1CCC(F)CC1 [Example 206, 3-(N-(2-(4-fluoropiperidin-1-yl)-5-(trifluoromethyl)phenyl)sulfamoyl)-4-methoxybenzoic acid] | < 500 nM |
| COc1ccc(C(=O)O)cc1NS(=O)(=O)c1cc(C(F)(F)F)ccc1N1CCCCC1 [Example 49, 4-methoxy-3-((2-(piperidin-1-yl)-5-(trifluoromethyl)phenyl)sulfonamido)benzoic acid] | < 500 nM |
| COc1ccc(C(=O)O)cc1S(=O)(=O)Nc1cc(C(F)(F)F)ccc1N1CCC(O)C(C)(C)C1 (stereo not shown) [Example 24, 3-(N-(2-(4-hydroxy-3,3-dimethylpiperidin-1-yl)-5-(trifluoromethyl)phenyl)sulfamoyl)-4-methoxybenzoic acid] | < 500 nM |
| COc1ccc(C(=O)O)cc1S(=O)(=O)Nc1cc(C#N)ccc1N1CCC[C@H](O)C1 [Example 264, (S)-3-(N-(5-cyano-2-(3-hydroxypiperidin-1-yl)phenyl)sulfamoyl)-4-methoxybenzoic acid] | < 500 nM |
| CCc1ccc(C(=O)O)cc1S(=O)(=O)Nc1c(N2CCCCC2)ccc(-c2cnoc2C)c1F [Example 305, 4-ethyl-3-(N-(2-fluoro-3-(5-methylisoxazol-4-yl)-6-(piperidin-1-yl)phenyl)sulfamoyl)benzoic acid] | < 500 nM |
| CCc1ccc(C(=O)O)cc1S(=O)(=O)Nc1cc(C(F)(F)F)ccc1N1CCCC[C@H]1C [Example 236, I-4-ethyl-3-(N-(2-(2-methylpiperidin-1-yl)-5-(trifluoromethyl)phenyl)sulfamoyl)benzoic acid] | < 500 nM |
| COc1ccc(C(=O)O)cc1S(=O)(=O)Nc1cc(C(F)(F)F)ccc1N1CCC(O)(C2CC2)CC1 [Example 185, 3-(N-(2-(4-cyclopropyl-4-hydroxypiperidin-1-yl)-5-(trifluoromethyl)phenyl)sulfamoyl)-4-methoxybenzoic acid] | < 500 nM |
| O=C(O)c1cc(Cl)cc(S(=O)(=O)Nc2cc(C(F)(F)F)ccc2N2CCCCC2)c1 [Example 80, 3-chloro-5-(N-(2-(piperidin-1-yl)-5-(trifluoromethyl)phenyl)sulfamoyl)benzoic acid] | < 5000 nM |
| COc1ccc(C(=O)O)cc1S(=O)(=O)Nc1cc(C(F)(F)F)ccc1N1CC2(CCO2)C1 [Example 19, 3-(N-(2-(1-oxa-6-azaspiro[3.3]heptan-6-yl)-5-(trifluoromethyl)phenyl)sulfamoyl)-4-methoxybenzoic acid] | < 5000 nM |
| CCc1ccc(C(=O)O)cc1S(=O)(=O)Nc1cc(-c2c[nH]nn2)ccc1N1CCCCC1 [Example 298, 4-ethyl-3-(N-(2-(piperidin-1-yl)-5-(1,2,3-triazol-4-yl)phenyl)sulfamoyl)benzoic acid] | < 500 nM |
| COc1ccc(C(=O)O)cc1S(=O)(=O)Nc1cc(C#N)ccc1N1CCC[C@@H](O)C1 [Example 258, I-3-(N-(5-cyano-2-(3-hydroxypiperidin-1-yl)phenyl)sulfamoyl)-4-methoxybenzoic acid] | < 500 nM |
| COc1ccc(C(=O)O)cc1S(=O)(=O)Nc1cc(-c2nn[nH]n2)ccc1N1CCCCC1 [Example 259, 4-methoxy-3-(N-(2-(piperidin-1-yl)-5-(tetrazol-5-yl)phenyl)sulfamoyl)benzoic acid] | < 500 nM |
| COc1ccc(C(=O)O)cc1S(=O)(=O)Nc1cc(Cl)c(Cl)cc1N1CCCCC1 [Example 202, 3-(N-(4,5-dichloro-2-(piperidin-1-yl)phenyl)sulfamoyl)-4-methoxybenzoic acid] | < 500 nM |
| COc1ccc(C(=O)O)cc1S(=O)(=O)Nc1cc(C(F)(F)F)ccc1N1CC(C)(OC)C1 [Example 22, 4-methoxy-3-(N-(2-(3-methoxy-3-methylazetidin-1-yl)-5-(trifluoromethyl)phenyl)sulfamoyl)benzoic acid] | > 5000 nM |
| Cc1ccc(C(=O)O)cc1S(=O)(=O)Nc1cc(C(F)(F)F)ccc1N1CCCOCC1 [Example 42, 3-(N-(2-(1,4-oxazepan-4-yl)-5-(trifluoromethyl)phenyl)sulfamoyl)-4-methylbenzoic acid] | > 5000 nM |
| CCc1ccc(C(=O)O)cc1S(=O)(=O)Nc1cc(-c2c(C)noc2C)ccc1N1CCCCC1 [Example 291, 3-(N-(5-(3,5-dimethylisoxazol-4-yl)-2-(piperidin-1-yl)phenyl)sulfamoyl)-4-ethylbenzoic acid] | < 500 nM |
| CCc1ccc(C(=O)O)cc1S(=O)(=O)Nc1cc(-c2cnccn2)ccc1N1CCCCC1 [Example 290, 4-ethyl-3-(N-(2-(piperidin-1-yl)-5-(pyrazin-2-yl)phenyl)sulfamoyl)benzoic acid] | < 500 nM |
| Cc1ccc(S(=O)(=O)Nc2cc(C(F)(F)F)ccc2N2CCCCC2)cc1C(=O)O [Example 70, 2-methyl-5-(N-(2-(piperidin-1-yl)-5-(trifluoromethyl)phenyl)sulfamoyl)benzoic acid] | < 5000 nM |
| CCc1ccc(C(=O)O)cc1S(=O)(=O)Nc1cc(-c2cncs2)ccc1N1CCCCC1 [Example 275, 4-ethyl-3-(N-(2-(piperidin-1-yl)-5-(thiazol-5-yl)phenyl)sulfamoyl)benzoic acid] | < 500 nM |
| CC(C)(C)c1ccc(C(=O)O)cc1S(=O)(=O)Nc1cc(C#N)ccc1N1CCCCC1 [Example 337, 4-(tert-butyl)-3-(N-(5-cyano-2-(piperidin-1-yl)phenyl)sulfamoyl)benzoic acid] | < 5000 nM |
| CCc1ccc(C(=O)O)cc1S(=O)(=O)Nc1cc(-n2cnnn2)ccc1N1CC(C)(O)C1 [Example 257, 4-ethyl-3-(N-(2-(3-hydroxy-3-methylazetidin-1-yl)-5-(tetrazol-1-yl)phenyl)sulfamoyl)benzoic acid] | < 500 nM |
| CCc1ccc(C(=O)O)cc1S(=O)(=O)Nc1cc(C(F)(F)F)c(Br)cc1N1CCCCC1 [Example 294, 3-(N-(4-bromo-2-(piperidin-1-yl)-5-(trifluoromethyl)phenyl)sulfamoyl)-4-ethylbenzoic acid] | < 500 nM |
